According to ChEMBL document CHEMBL1155853, “N-(thiazol-2-yl)-2-thiophene carboxamide derivatives as Abl inhibitors identified by a pharmacophore-based database screening of commercially available compounds” (Bioorg Med Chem Lett, 2008):

Biological target: Tyrosine-protein kinase ABL1 (Homo sapiens, UniProt P00519)
Assay: Inhibition of Abl kinase by cell free assay

Tyrosine-protein kinase ABL1, sequence (P00519 whole entry): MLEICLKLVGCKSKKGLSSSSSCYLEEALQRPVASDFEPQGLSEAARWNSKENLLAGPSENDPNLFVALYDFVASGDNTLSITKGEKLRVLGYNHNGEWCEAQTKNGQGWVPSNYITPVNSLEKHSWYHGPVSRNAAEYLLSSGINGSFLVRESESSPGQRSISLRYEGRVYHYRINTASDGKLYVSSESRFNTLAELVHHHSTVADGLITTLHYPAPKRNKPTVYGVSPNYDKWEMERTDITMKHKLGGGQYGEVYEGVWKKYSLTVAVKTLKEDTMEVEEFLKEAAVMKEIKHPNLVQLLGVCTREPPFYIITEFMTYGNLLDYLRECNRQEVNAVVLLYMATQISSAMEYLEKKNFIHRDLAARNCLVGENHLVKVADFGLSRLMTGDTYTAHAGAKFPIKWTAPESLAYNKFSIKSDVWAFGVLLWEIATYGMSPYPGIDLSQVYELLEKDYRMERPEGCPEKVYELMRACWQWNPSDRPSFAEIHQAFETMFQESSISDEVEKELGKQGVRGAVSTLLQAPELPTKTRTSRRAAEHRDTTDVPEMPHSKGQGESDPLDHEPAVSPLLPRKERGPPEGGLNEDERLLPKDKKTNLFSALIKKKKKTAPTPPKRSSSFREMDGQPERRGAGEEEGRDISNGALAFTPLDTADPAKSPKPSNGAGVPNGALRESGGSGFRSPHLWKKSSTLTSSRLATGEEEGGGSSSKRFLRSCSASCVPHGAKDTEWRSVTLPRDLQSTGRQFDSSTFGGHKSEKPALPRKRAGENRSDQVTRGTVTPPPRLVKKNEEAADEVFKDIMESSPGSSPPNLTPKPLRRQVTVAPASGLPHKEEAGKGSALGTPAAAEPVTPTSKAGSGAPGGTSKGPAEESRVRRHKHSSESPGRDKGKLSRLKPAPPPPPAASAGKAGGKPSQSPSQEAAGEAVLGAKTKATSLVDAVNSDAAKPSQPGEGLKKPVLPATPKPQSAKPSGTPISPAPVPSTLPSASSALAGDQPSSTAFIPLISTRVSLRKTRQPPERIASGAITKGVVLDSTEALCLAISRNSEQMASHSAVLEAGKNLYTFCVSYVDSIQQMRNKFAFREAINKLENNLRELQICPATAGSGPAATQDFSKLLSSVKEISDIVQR

Row | Ki [nM] | SMILES
1 | 3470 | O=C(Nc1ncc(Cc2ccc(Cl)cc2Cl)s1)c1cccs1
2 | 249 | Cc1ccc(Cc2cnc(NC(=O)c3cccs3)s2)cc1
3 | 1650 | O=C(Nc1ncc(-c2ccc(F)cc2)s1)c1cccs1
4 | 136 | O=C(Nc1ncc(Cc2cccc(C(F)(F)F)c2)s1)c1cccs1
5 | 170 | O=C(Nc1ncc(Cc2ccccc2F)s1)c1cccs1
6 | 624 | O=C(Nc1ncc(Cc2ccc(Cl)cc2)s1)c1cccs1
7 | 845 | O=C(Nc1ncc(Cc2cc(C(F)(F)F)ccc2Cl)s1)c1cccs1
8 | 130 | O=C(Nc1ncc(Cc2ccc(F)cc2)s1)c1cccs1
9 | 90 | O=C(Nc1ncc(Cc2ccccc2)s1)c1cccs1
10 | 59 | Cc1cccc(Cc2cnc(NC(=O)c3cccs3)s2)c1
11 | 245 | O=C(Nc1ncc(Cc2ccccc2Cl)s1)c1cccs1
12 | 50 | O=C(Nc1ncc(Cc2cc(Cl)ccc2Cl)s1)c1cccs1
13 | 97 | O=C(Nc1ncc(Cc2cccc(Cl)c2)s1)c1cccs1

Row | SMILES | Ki [nM]
14 | COc1ccc(Cc2cnc(NC(=O)c3cccs3)s2)cc1 | 16
15 | O=C(Nc1ncc(-c2ccc(Cl)cc2)s1)c1cccs1 | 791
16 | COc1ccc2c(c1)Cc1sc(NC(=O)c3cccs3)nc1-2 | 68
17 | O=C(Nc1nnc(COc2ccccc2)s1)c1cccs1 | 278
18 | O=C(Nc1nnc(Cc2ccccc2)s1)c1cccs1 | 360
